Consider five compounds from patent US20260184663A1, “INDENE COMPOUNDS, PHARMACEUTICAL COMPOSITIONS THEREOF, AND THEIR THERAPEUTIC APPLICATIONS” (NucMito Pharmaceuticals co. Ltd., priority 2022, published 2026).

Read-outs that look alike come from different tables or passages of the source. Some results are limits rather than exact numbers.

Common to all, as to format: cell-based
For assay [1], the system named is B16F10 (malignant melanoma). The assay is described as follows: Antiproliferative activity (CCK-8 cell viability), B16F10. Particulars: Mus musculus, 72 h; for inhibition at 3.3 µM: B16-F10, Compound concentration: 3.3 μM; for inhibition at 10 µM: B16-F10, Compound concentration: 10 μM; for inhibition at 30 µM: B16-F10, Compound concentration: 30 μM. Summed up: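 Cell growth inhibition was measured in B16F10 malignant melanoma cells with a Cell Counting Kit-8 viability assay. Cells were maintained in DMEM plus 10% fetal bovine serum, seeded at 2,000-5,000 cells/well in 96-well plates, and treated for 72 h at 37° C. Viability was expressed relative to DMSO-treated vehicle control wells.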

The next assay concerns SW480 (colon cancer). As to the kind of experiment: Antiproliferative activity (CCK-8 cell viability), SW480. Conditions: Homo sapiens, 72 h; for inhibition at 3.3 µM: Compound concentration: 3.3 μM; for inhibition at 10 µM: Compound concentration: 10 μM; for inhibition at 30 µM: Compound concentration: 30 μM. The method, boiled down:
(§1)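 Growth inhibition graded in bands from percent viability against DMSO vehicle, read as CCK-8 absorbance at 450 nm. Compound tested at 3.3, 10 or 30 μM for 72 h, 37 °C; media contained 10% FBS: DMEM for HepG2/SW480, MEM for HeLa, F-12K for A549.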

Assay [2] has as its system A549 (lung adenocarcinoma). The assay is described as follows: Antiproliferative activity (CCK-8 cell viability), A549. Particulars: Homo sapiens, 72 h; for inhibition at 3.3 µM: Compound concentration: 3.3 μM; for inhibition at 10 µM: Compound concentration: 10 μM; for inhibition at 30 µM: Compound concentration: 30 μM. Summed up: as §1
The next assay has as its system HepG2 (liver cancer). The assay is described as follows: Antiproliferative activity (CCK-8 cell viability), HepG2. Particulars: Homo sapiens, 72 h; for inhibition at 3.3 µM: Compound concentration: 3.3 μM; for inhibition at 10 µM: Compound concentration: 10 μM; for inhibition at 30 µM: Compound concentration: 30 μM. The method, boiled down:
as §1

For assay [3], the system named is A431 (epidermoid carcinoma). The assay is described as follows: Antiproliferative activity (CCK-8 cell viability), A431. Particulars: Homo sapiens, 72 h; for inhibition at 3.3 µM: A-431, Compound concentration: 3.3 μM; for inhibition at 10 µM: A-431, Compound concentration: 10 μM; for inhibition at 30 µM: A-431, Compound concentration: 30 μM. Summed up:
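This growth inhibition assay used A431 cells maintained in Dulbecco's modified Eagle's medium plus 10% fetal bovine serum. Cells were seeded in 96-well plates, treated with compound for 72 h at 37° C., and then given 10 μL CCK-8 solution. After a further 4 h, absorbance was read at 450 nm.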

In assay [4] the test system is MDA-MB-231 (breast cancer). As to the kind of experiment: Antiproliferative activity (CCK-8 cell viability), MDA-MB-231. Particulars: Homo sapiens, 72 h, read-out: Antiproliferative activity in cancerous cells, MDA-MB-231 (inhibition of cell growth); for inhibition at 3.3 µM: Compound concentration: 3.3 μM; for inhibition at 10 µM: Compound concentration: 10 μM. The method, boiled down:
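Growth inhibition of human MDA-MB-231 breast cancer cells was assessed with a Cell Counting Kit-8. Cells cultured in DMEM plus 10% FBS were seeded at 2,000-5,000 cells/well, treated after attachment, and kept 72 h at 37° C. CCK-8 solution (10 μL) was added for 4 h, and absorbance at 450 nm was compared with DMSO-treated controls.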

Assay [5] deals with alpha-smooth muscle actin (α-SMA). The assay is described as follows: Inhibition of TGF-β induced expression of alpha-smooth muscle actin (α-SMA) in CFSC cells (western blot). Particulars: compound at 10 μM, TGF-β (10 ng/mL), 24 hours, band intensity vs TGF-β only. The method, boiled down: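 Values are percent reduction of α-SMA band intensity relative to cells given TGF-β alone, quantified by Western blot densitometry with β-actin probed. Compound was applied at 10 μM alongside 10 ng/mL TGF-β to serum-free CFSC cultures for 24 h at 37 °C.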
A general note: Immunoblotting shows a protein as a band on a membrane.

The test system of another assay is HeLa (cervical cancer). The assay is described as follows: Antiproliferative activity (CCK-8 cell viability), HeLa. Conditions: Homo sapiens, 72 h; for inhibition at 3.3 µM: Compound concentration: 3.3 μM; for inhibition at 10 µM: Compound concentration: 10 μM; for inhibition at 30 µM: Compound concentration: 30 μM. The method, boiled down:
as §1

Setting [6] is: read-out: Antiproliferative activity in cancerous cells, B16F10 (inhibition of cell growth).
The mark [7] stands for this setting: read-out: Antiproliferative activity in cancerous cells, SW480 (inhibition of cell growth).
Setting [8] is: read-out: Antiproliferative activity in cancerous cells, A549 (inhibition of cell growth).
Setting [9] is: read-out: Antiproliferative activity in cancerous cells, A549.
Setting [10] is: read-out: Antiproliferative activity in cancerous cells, HepG2 (inhibition of cell growth).
Where [11] appears, read: read-out: Antiproliferative activity in cancerous cells, A431 (inhibition of cell growth).
Where [12] appears, read: read-out: Antiproliferative activity in cancerous cells, HELA (inhibition of cell growth).
The mark [13] stands for this setting: read-out: Antiproliferative activity in cancerous cells, HepG2.

For the compound `CC1=C(CC(=O)O)c2ccc(F)cc2/C1=C\c1ccc(COc2ccccc2)cc1` [B1, (Z)-2-(6-Fluoro-2-methyl-1-(4-(phenoxymethyl)benzylidene)-1H-inden-3-yl)-acetic acid], the inhibition at 3.3 µM was at least 50% in assay [1] (setting [6]); at least 50% in the assay on SW480 (colon cancer) (setting [7]); below 30% in assay [2] (setting [8]); below 30% in the assay on HepG2 (liver cancer) (setting [10]); 30 to 50% in assay [3] (setting [11]); below 30% in assay [4]. Moreover, the inhibition at 3.3 µM in the assay on HeLa (cervical cancer) (setting [12]) is below 30%. Also, the inhibition at 10 µM was at least 50% in assay [1] (setting [6]); at least 50% with SW480 (colon cancer) (setting [7]); below 30% in assay [2] (setting [8]); at least 50% in the assay on HepG2 (liver cancer) (setting [10]); 30 to 50% in assay [3] (setting [11]); at least 50% in assay [4]. Moreover, the inhibition at 10 µM (in assay [5]; in the assay on HeLa (cervical cancer) (setting [12])) was below 30% throughout. The inhibition at 30 µM in assay [2] (setting [9]) was in the range of 30 to 50%; in the assay with HeLa (cervical cancer) (read-out: Antiproliferative activity in cancerous cells, HELA), 30 to 50%.
`COc1ccc2c(c1)/C(=C\c1ccc(OCc3ccccc3)cc1)C=C2CC(=O)O` [A9, (Z)-2-(1-(4-(Benzyloxy)benzylidene)-6-methoxy-1H-inden-3-yl)acetic acid]: the inhibition at 3.3 µM in assay [1] (setting [6]) is below 30%; in the assay with SW480 (colon cancer) (setting [7]), 30 to 50%; in assay [2] (setting [8]), 30 to 50%; in the assay on HepG2 (liver cancer) (setting [10]) it was below 30%; in assay [3] (setting [11]), 30 to 50%; in assay [4], below 30%. Moreover, the inhibition at 3.3 µM with HeLa (cervical cancer) (setting [12]) is below 30%. The inhibition at 10 µM in assay [1] (setting [6]) is below 30%; with SW480 (colon cancer) (setting [7]), at least 50%; in assay [2] (setting [8]), at least 50%; in the assay on HepG2 (liver cancer) (setting [10]), below 30%; in assay [3] (setting [11]), at least 50%; in assay [4], at least 50%. For the same compound, the inhibition at 10 µM in assay [5] is above 80%; in the assay on HeLa (cervical cancer) (setting [12]), 30 to 50%. Also, the inhibition at 30 µM in the assay on HepG2 (liver cancer) (setting [13]) is 30 to 50%.
Consider `O=C(O)CC1=C/C(=C/c2cccc(COc3ccccc3)c2)c2ccc(F)cc21` [A8, (Z)-2-(5-Fluoro-1-(3-(phenoxymethyl)benzylidene)-1H-inden-3-yl)acetic acid], for which the inhibition at 3.3 µM in assay [1] (setting [6]) was 30 to 50%; in the assay with SW480 (colon cancer) (setting [7]) it was below 30%; in assay [2] (setting [8]), 30 to 50%; with HepG2 (liver cancer) (setting [10]), 30 to 50%; in assay [3] (setting [11]), below 30%; in assay [4] it was 30 to 50%. Further, in the assay on HeLa (cervical cancer) (setting [12]), the inhibition at 3.3 µM is at least 50%. Further, the inhibition at 10 µM was at least 50% in assay [1] (setting [6]); 30 to 50% with SW480 (colon cancer) (setting [7]); at least 50% in assay [2] (setting [8]); 30 to 50% in the assay on HepG2 (liver cancer) (setting [10]); 30 to 50% in assay [3] (setting [11]); at least 50% in assay [4]. In addition, the inhibition at 10 µM was above 80% in assay [5] and at least 50% in the assay with HeLa (cervical cancer) (setting [12]).
Consider `CC1=C(CC(=O)O)c2cc(F)ccc2/C1=C/c1cccc(COc2ccc(F)cc2F)c1` [E6, (E)-2-(1-(3-((2,4-Difluorophenoxy)methyl)benzylidene)-5-fluoro-2-methyl-1H-inden-3-yl)acetic acid], for which the inhibition at 3.3 µM in assay [1] (setting [6]) was below 30%; with SW480 (colon cancer) (setting [7]) it was below 30%; in assay [2] (setting [8]), below 30%; in the assay with HepG2 (liver cancer) (setting [10]), below 30%; in assay [3] (setting [11]), below 30%; in assay [4], 30 to 50%. Moreover, the inhibition at 3.3 µM in the assay with HeLa (cervical cancer) (setting [12]) was below 30%. In addition, the inhibition at 10 µM was 30 to 50% in assay [1] (setting [6]); 30 to 50% in the assay with SW480 (colon cancer) (setting [7]); below 30% in assay [2] (setting [8]); below 30% in the assay on HepG2 (liver cancer) (setting [10]); 30 to 50% in assay [3] (setting [11]); 30 to 50% in assay [4]. The inhibition at 10 µM in assay [5] is above 80%; in the assay on HeLa (cervical cancer) (setting [12]), below 30%. Besides, the inhibition at 30 µM (in assay [1] (setting [6]); in the assay on SW480 (colon cancer) (setting [7]); in assay [2] (setting [8]); in the assay with HepG2 (liver cancer) (setting [10]); in assay [3] (setting [11]); in assay [4] (Compound concentration: 30 μM)) was at least 50% each time. The inhibition at 30 µM in the assay with HeLa (cervical cancer) (setting [12]) was at least 50%.
On to `CC1=C(CC(=O)O)c2cc(F)ccc2/C1=C\c1ccc(Sc2nc3ccccc3[nH]2)cc1` [C36, (Z)-2-(1-(4-((1H-Benzo[d]imidazol-2-yl)thio)benzylidene)-5-fluoro-2-methyl-1H-inden-3-yl)acetic acid], for which the inhibition at 3.3 µM (in assay [1] (setting [6]); in the assay on SW480 (colon cancer) (setting [7]); in assay [2] (setting [8]); in the assay with HepG2 (liver cancer) (setting [10]); in assay [3] (setting [11]); in assay [4]) was below 30% in each case. The inhibition at 3.3 µM in the assay on HeLa (cervical cancer) (setting [12]) is below 30%. Moreover, the inhibition at 10 µM in assay [1] (setting [6]) was below 30%; with SW480 (colon cancer) (setting [7]), 30 to 50%; in assay [2] (setting [8]), below 30%; with HepG2 (liver cancer) (setting [10]), below 30%; in assay [3] (setting [11]), below 30%; in assay [4], 30 to 50%. Moreover, the inhibition at 10 µM is below 30% in assay [5] and 30 to 50% with HeLa (cervical cancer) (setting [12]). The inhibition at 30 µM in assay [1] (read-out: Antiproliferative activity in cancerous cells, B16F10) was 30 to 50%; with SW480 (colon cancer) (read-out: Antiproliferative activity in cancerous cells, SW480) it was 30 to 50%; in assay [2] (setting [9]), 30 to 50%; in the assay on HepG2 (liver cancer) (setting [13]), below 30%; in assay [3] (read-out: Antiproliferative activity in cancerous cells, A431) it was below 30%.
